Counter-ions that a name gives are not always drawn.
Experiments:
Set-up in all cases: scale not given: the % may be the effect or the level left
[1] = molecular target: T1, Multidrug resistance-associated protein 1 (Homo sapiens, UniProt P33527); experiment: TP_TRANSPORTER: inhibition of DNP-SG uptake (DNP-SG: 0.01 uM, ICG: 10 uM) in membrane vesicles from GLC4/ADR cells; assay type: functional, cell membranes, Membrane vesicle; details: glc-4/adr
[2] = molecular target: T2, Multidrug resistance-associated protein 1 (MRP1) (Homo sapiens, UniProt P33527); experiment: TP_TRANSPORTER: inhibition of DNP-SG uptake (DNP-SG: 0.01 uM, MTX: 10 uM) in membrane vesicles from GLC4/ADR cells; assay type: functional, cell membranes, GLC-4/ADR, Membrane vesicle; details: probe DNP-SG, read-out: Activity
[3] = molecular target: T1, Multidrug resistance-associated protein 1; experiment: TP_TRANSPORTER: inhibition of DNP-SG uptake (DNP-SG: 0.01 uM, TLCAS: 10 uM) in membrane vesicles from GLC4/ADR cells; assay type: functional, cell membranes, Membrane vesicle; details: glc-4/adr
[4] = molecular target: T2, Multidrug resistance-associated protein 1 (MRP1); experiment: TP_TRANSPORTER: inhibition of DNP-SG uptake (DNP-SG: 0.01 uM, Calcein: 500 uM) in membrane vesicles from GLC4/ADR cells; assay type: functional, cell membranes, GLC-4/ADR, Membrane vesicle; details: probe DNP-SG, read-out: Activity
[5] = molecular target: T1, Multidrug resistance-associated protein 1; experiment: TP_TRANSPORTER: inhibition of DNP-SG uptake (DNP-SG: 0.01 uM, Taxol: 10 uM) in membrane vesicles from GLC4/ADR cells; assay type: functional, cell membranes, Membrane vesicle; details: glc-4/adr
[6] = molecular target: T2, Multidrug resistance-associated protein 1 (MRP1); experiment: TP_TRANSPORTER: inhibition of DNP-SG uptake (DNP-SG: 0.01 uM, Calcein-AM: 10 uM) in membrane vesicles from GLC4/ADR cells; assay type: functional, cell membranes, GLC-4/ADR, Membrane vesicle; details: probe DNP-SG, read-out: Activity
[7] = molecular target: T2, Multidrug resistance-associated protein 1 (MRP1); experiment: TP_TRANSPORTER: inhibition of DNP-SG uptake (DNP-SG: 0.01 uM, VP-16: 10 uM) in membrane vesicles from GLC4/ADR cells; assay type: functional, cell membranes, GLC-4/ADR, Membrane vesicle; details: probe DNP-SG, read-out: Activity
[8] = molecular target: T2, Multidrug resistance-associated protein 1 (MRP1); experiment: TP_TRANSPORTER: inhibition of DNP-SG uptake (DNP-SG: 0.01 uM, TCAS: 10 uM) in membrane vesicles from GLC4/ADR cells; assay type: functional, cell membranes, GLC-4/ADR, Membrane vesicle; details: probe DNP-SG, read-out: Activity
[9] = molecular target: T2, Multidrug resistance-associated protein 1 (MRP1); experiment: TP_TRANSPORTER: inhibition of DNP-SG uptake (DNP-SG: 0.01 uM, TLC: 10 uM) in membrane vesicles from GLC4/ADR cells; assay type: functional, cell membranes, GLC-4/ADR, Membrane vesicle; details: probe DNP-SG, read-out: Activity
[10] = molecular target: T2, Multidrug resistance-associated protein 1 (MRP1); experiment: TP_TRANSPORTER: inhibition of DNP-SG uptake (DNP-SG: 0.01 uM, Idarbicin: 10 uM) in membrane vesicles from GLC4/ADR cells; assay type: functional, cell membranes, GLC-4/ADR, Membrane vesicle; details: probe DNP-SG, read-out: Activity

T2 sequence (P33527 whole entry): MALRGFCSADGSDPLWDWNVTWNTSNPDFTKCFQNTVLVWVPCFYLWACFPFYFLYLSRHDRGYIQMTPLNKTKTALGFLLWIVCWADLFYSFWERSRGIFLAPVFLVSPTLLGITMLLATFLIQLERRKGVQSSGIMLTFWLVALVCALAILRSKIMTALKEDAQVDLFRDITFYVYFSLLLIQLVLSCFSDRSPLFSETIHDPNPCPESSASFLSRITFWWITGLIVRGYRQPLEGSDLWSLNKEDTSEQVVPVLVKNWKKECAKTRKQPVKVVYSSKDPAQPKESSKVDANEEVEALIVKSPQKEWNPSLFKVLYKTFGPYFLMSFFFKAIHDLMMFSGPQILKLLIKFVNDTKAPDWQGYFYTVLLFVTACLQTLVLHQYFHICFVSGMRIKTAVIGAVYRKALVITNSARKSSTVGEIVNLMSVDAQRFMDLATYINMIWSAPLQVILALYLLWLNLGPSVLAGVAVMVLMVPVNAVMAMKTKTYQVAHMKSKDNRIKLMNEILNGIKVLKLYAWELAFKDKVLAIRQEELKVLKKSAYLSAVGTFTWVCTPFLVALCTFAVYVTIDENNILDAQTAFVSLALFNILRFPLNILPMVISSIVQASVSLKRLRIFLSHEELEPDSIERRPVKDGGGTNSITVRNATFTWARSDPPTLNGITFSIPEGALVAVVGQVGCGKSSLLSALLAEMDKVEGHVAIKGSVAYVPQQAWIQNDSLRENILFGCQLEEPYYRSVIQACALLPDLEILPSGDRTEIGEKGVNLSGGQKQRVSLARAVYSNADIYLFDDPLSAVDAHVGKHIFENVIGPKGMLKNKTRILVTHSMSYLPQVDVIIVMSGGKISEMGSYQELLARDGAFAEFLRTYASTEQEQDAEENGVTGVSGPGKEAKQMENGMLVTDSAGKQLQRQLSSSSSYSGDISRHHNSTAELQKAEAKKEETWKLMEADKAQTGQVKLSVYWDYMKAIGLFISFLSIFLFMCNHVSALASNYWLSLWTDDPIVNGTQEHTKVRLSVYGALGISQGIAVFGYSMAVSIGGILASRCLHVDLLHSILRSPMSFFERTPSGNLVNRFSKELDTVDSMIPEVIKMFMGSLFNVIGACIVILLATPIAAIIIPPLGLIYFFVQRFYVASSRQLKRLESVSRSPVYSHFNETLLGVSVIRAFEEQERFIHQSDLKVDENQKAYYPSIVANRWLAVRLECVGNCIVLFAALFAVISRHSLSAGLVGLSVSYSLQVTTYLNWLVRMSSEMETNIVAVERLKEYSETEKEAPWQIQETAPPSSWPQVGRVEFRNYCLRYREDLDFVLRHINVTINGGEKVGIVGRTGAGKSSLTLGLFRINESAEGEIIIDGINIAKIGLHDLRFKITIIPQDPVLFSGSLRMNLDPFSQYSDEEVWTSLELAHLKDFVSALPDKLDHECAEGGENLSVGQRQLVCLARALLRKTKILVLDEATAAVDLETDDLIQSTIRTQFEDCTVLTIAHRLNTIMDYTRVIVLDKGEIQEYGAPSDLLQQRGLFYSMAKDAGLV
T1 sequence (P33527 whole entry): as above

CC1(C)C(/C=C/C=C/C=C/C=C2/N(CCCCS(=O)(=O)[O-])c3ccc4ccccc4c3C2(C)C)=[N+](CCCCS(=O)(=O)[O-])c2ccc3ccccc3c21.[Na+] [INDOCYANINE GREEN]
Activity [1]: 34%

CN(Cc1cnc2nc(N)nc(N)c2n1)c1ccc(C(=O)N[C@@H](CCC(=O)O)C(=O)O)cc1 [METHOTREXATE]
activity at 10 µM [2]: 82%

C[C@H](CCC(=O)NCCS(=O)(=O)O)C1CC[C@H]2[C@@H]3CC[C@@H]4C[C@H](OS(=O)(=O)O)CC[C@]4(C)[C@H]3CC[C@]12C (stereo not given in full)
Activity [3]: 11%

O=C(O)CN(CC(=O)O)Cc1cc2c(cc1O)Oc1cc(O)c(CN(CC(=O)O)CC(=O)O)cc1C21OC(=O)c2ccccc21 [OFTASCEINE]
activity at 500 µM [4]: 40%

CC(=O)O[C@H]1C(=O)[C@@]2(C)[C@H]([C@H](OC(=O)c3ccccc3)[C@]3(O)C[C@H](OC(=O)[C@H](O)[C@@H](NC(=O)c4ccccc4)c4ccccc4)C(C)=C1C3(C)C)[C@]1(OC(C)=O)CO[C@@H]1C[C@@H]2O [PACLITAXEL]
Activity [5]: 66%

CC(=O)OCOC(=O)CN(CC(=O)OCOC(C)=O)Cc1c(OC(C)=O)ccc2c1Oc1c(ccc(OC(C)=O)c1CN(CC(=O)OCOC(C)=O)CC(=O)OCOC(C)=O)C21OC(=O)c2ccccc21
activity at 10 µM [6]: 44%

COc1cc([C@@H]2c3cc4c(cc3[C@@H](O[C@@H]3O[C@@H]5CO[C@@H](C)O[C@H]5[C@H](O)[C@H]3O)[C@H]3COC(=O)[C@H]23)OCO4)cc(OC)c1O [ETOPOSIDE]
activity at 10 µM [7]: 50%

C[C@H](CCC(=O)NCCS(=O)(=O)O)C1CC[C@H]2[C@@H]3[C@H](O)C[C@@H]4C[C@H](OS(=O)(=O)O)CC[C@]4(C)[C@H]3C[C@H](O)[C@]12C (stereo not given in full) [TAUROCHOLATE SULFATE]
activity at 10 µM [8]: 76%

C[C@H](CCC(=O)NCCS(=O)(=O)O)[C@H]1CC[C@H]2[C@@H]3CC[C@@H]4C[C@H](O)CC[C@]4(C)[C@H]3CC[C@]12C [TAUROLITHOCHOLIC ACID]
activity at 10 µM [9]: 56%

CC(=O)[C@]1(O)Cc2c(O)c3c(c(O)c2[C@@H](O[C@H]2C[C@H](N)[C@H](O)[C@H](C)O2)C1)C(=O)c1ccccc1C3=O [IDARUBICIN]
activity at 10 µM [10]: 52%
